In PMC6956098 (2019):

Tests used:
[1] = system: VDBA14 aptamer, 5'-Cy5-labeled (DNA, aptamer) AGCAGCACAGAGGTCATGGGGGGTGTGACTTTGGTGTGCCTATGCGTGCTACGGAA; experiment: microscale thermophoresis; details: 100 mM NaCl, 5 mM KCl, 2 mM MgCl2, 1 mM CaCl2, 20 mM Tris-HCl pH 7.6, 10% ethanol, 35 °C
[2] = system: VDBA14 aptamer, immobilized on microarray (DNA, aptamer) AGCAGCACAGAGGTCATGGGGGGTGTGACTTTGGTGTGCCTATGCGTGCTACGGAA; experiment: microarray fluorescence, displacement of Cy5-oligonucleotide; details: 100 mM NaCl, 5 mM KCl, 2 mM MgCl2, 1 mM CaCl2; 20 mM Tris-HCl pH 7.6; tracer displaced: 50 nM 5'-Cy5-AAAGTCACAC (O3); 78% maximal reduction at 2 μM
[3] = system: VDBA14 aptamer, 5'-NH2-modified (in solution) (DNA, aptamer) AGCAGCACAGAGGTCATGGGGGGTGTGACTTTGGTGTGCCTATGCGTGCTACGGAA; experiment: microscale thermophoresis, displacement of Cy5-oligonucleotide; details: 100 mM NaCl, 5 mM KCl, 2 mM MgCl2, 1 mM CaCl2, pH 7.6, 35 °C, tracer displaced: 10 nM 5'-Cy5-AAAGTCACAC (O3), 10 nM aptamer

SMILES	Kd ([1]; no binding observed at room temperature) [nM]	binding [2]	apparent Kd [3] [nM]	binding ([1]; highest concentration 10 μM)
C=C1CC[C@H](O)C/C1=C/C=C1\CCC[C@]2(C)[C@@H]([C@H](C)CCCC(C)(C)O)CC[C@@H]12	14.99	yes	1 ± 0.18	
C=C1CC[C@H](O)C/C1=C/C=C1\CCC[C@]2(C)[C@@H]([C@H](C)CCCC(C)C)CC[C@@H]12				no
